This is an account of results in patent publication US11447466B2, “Substituted indole compounds useful as inhibitors of TLR7/8/9” (BRISTOL-MYERS SQUIBB COMPANY, priority 2017, dated 2022).

Each structure is given as a SMILES string. pIC50: −log10 of the molar value.

Holding throughout (assay type): cell-based
One experiment concerns the target T1, human TLR7 (Homo sapiens, UniProt Q9NYK1).
T1 construct: host or cells: HEK-Blue cells
T1 sequence (Q9NYK1 27-1049): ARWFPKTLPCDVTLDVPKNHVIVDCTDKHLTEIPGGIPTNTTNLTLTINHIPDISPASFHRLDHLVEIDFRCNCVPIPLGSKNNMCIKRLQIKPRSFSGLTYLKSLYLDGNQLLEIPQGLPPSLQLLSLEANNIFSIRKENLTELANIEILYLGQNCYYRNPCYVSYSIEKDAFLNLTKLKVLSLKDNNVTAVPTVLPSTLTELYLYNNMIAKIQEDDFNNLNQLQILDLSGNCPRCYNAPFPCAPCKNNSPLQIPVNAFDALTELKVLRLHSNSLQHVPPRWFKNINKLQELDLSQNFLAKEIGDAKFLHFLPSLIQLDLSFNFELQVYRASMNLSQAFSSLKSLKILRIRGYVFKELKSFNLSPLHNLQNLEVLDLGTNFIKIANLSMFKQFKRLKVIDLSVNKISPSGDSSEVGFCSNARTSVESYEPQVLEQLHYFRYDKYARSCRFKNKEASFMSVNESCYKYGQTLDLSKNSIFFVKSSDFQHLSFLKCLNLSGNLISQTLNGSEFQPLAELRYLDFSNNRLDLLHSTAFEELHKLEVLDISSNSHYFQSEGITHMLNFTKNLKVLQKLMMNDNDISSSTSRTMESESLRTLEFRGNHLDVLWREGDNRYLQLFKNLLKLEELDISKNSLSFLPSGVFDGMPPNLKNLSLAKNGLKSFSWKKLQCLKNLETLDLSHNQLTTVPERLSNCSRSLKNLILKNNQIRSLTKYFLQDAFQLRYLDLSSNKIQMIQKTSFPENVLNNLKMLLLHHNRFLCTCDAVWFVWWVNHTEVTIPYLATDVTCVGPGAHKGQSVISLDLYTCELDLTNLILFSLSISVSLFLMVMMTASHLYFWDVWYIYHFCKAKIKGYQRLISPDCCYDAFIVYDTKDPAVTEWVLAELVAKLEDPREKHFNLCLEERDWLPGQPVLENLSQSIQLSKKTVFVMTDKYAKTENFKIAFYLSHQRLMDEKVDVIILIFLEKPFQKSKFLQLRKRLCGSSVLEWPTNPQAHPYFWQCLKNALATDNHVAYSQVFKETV
In words: TLR7 inhibition reporter assay (HEK-Blue SEAP reporter, gardiquimod stimulation). Particulars: HEK-Blue cells overexpressing human TLR7, SEAP reporter, gardiquimod 7.5 μM, 22 hour incubation. The method in brief: (§1)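 Human TLR7/8/9 HEK-Blue reporter lines; dose range 0.05 nM–50 μM; 30 min RT preincubation; stimulus gardiquimod 7.5 μM / R848 15.9 μM / ODN2006 5 nM respectively; 22 h, 37 °C; SEAP detected colorimetrically.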
(Reporter assays use an easily measured gene product as a stand-in for the process of interest.)

Another experiment has as its target T2, human TLR8 (Homo sapiens, UniProt Q9NR97).
T2 construct: host or cells: HEK-Blue cells
T2 sequence (Q9NR97 27-1041): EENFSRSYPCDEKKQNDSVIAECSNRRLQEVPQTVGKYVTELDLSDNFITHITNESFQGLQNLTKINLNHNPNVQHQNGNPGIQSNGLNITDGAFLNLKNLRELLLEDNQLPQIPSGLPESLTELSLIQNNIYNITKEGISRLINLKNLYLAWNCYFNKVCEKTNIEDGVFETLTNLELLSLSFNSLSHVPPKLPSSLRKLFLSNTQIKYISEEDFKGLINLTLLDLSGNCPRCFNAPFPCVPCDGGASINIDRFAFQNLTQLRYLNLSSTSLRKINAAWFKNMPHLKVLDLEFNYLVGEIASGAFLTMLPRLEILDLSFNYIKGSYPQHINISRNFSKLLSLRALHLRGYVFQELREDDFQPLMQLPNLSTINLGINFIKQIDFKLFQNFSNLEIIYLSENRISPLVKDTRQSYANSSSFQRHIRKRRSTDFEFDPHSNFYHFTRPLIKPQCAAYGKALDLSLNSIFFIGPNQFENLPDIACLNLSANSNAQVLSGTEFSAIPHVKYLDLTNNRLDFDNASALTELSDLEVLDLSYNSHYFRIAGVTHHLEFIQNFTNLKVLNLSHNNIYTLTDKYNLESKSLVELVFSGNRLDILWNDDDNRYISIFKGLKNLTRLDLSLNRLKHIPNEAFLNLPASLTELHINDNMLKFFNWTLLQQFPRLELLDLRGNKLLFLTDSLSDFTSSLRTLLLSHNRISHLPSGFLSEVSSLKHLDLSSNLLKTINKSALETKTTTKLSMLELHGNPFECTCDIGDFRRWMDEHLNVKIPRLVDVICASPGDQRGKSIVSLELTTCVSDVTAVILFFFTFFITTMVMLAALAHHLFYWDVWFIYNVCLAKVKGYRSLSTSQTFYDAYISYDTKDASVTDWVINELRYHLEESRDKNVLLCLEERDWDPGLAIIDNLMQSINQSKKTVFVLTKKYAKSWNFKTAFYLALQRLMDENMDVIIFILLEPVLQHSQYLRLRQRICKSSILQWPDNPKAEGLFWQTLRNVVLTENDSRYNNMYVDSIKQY
In words: TLR8 inhibition reporter assay (HEK-Blue SEAP reporter, R848 stimulation). The following applies: HEK-Blue cells overexpressing human TLR8, SEAP reporter, R848 15.9 μM, 22 hour incubation. The method in brief: as §1

In another experiment the target is T3, human TLR9 (Homo sapiens, UniProt Q9NR96).
T3 construct: host or cells: HEK-Blue cells
T3 sequence (Q9NR96 26-1032): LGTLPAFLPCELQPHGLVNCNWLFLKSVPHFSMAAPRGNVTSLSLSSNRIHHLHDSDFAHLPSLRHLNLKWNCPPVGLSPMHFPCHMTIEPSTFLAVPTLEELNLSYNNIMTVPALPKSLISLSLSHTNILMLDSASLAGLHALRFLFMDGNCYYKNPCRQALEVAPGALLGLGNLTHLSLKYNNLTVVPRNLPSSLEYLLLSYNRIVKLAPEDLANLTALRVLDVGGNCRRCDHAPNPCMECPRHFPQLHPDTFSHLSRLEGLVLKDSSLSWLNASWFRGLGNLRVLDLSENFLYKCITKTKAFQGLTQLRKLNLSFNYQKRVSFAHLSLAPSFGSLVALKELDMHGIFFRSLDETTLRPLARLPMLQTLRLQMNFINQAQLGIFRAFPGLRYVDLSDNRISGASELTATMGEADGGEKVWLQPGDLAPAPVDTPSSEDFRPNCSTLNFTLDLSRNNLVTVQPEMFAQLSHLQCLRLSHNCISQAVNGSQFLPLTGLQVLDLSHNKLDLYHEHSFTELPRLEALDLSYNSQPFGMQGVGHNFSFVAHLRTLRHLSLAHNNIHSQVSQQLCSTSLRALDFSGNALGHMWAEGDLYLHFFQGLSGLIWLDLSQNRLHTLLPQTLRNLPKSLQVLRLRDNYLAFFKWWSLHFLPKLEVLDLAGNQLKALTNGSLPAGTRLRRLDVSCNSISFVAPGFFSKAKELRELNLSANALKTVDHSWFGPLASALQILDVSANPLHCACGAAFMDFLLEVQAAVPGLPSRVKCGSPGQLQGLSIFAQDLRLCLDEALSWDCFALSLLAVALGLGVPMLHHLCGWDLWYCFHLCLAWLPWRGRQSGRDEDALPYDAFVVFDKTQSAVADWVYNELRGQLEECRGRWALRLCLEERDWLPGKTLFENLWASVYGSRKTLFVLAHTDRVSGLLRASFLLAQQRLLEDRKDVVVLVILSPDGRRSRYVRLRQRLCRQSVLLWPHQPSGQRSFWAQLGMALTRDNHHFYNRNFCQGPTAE
As to the kind of experiment: TLR9 inhibition reporter assay (HEK-Blue SEAP reporter, ODN2006 stimulation). Particulars: HEK-Blue cells overexpressing human TLR9, SEAP reporter, ODN2006 5 nM, 22 hour incubation. The procedure, abridged:
as §1

Turning to `Cc1c(-c2[nH]c3ccc(C4CCN(C(C)C)CC4)cc3c2C(C)C)cn(C)c(=O)c1C` [Example 212, 5-(3-isopropyl-5-(1-isopropylpiperidin-4-yl)-1H-indol-2-yl)-1,3,4-trimethylpyridin-2(1H)-one], the negative logarithm of the IC50 (pIC50) at human TLR7 is 7.77; against human TLR8, 7.76; against human TLR9, 4.90.
Regarding `CC(C)c1c(-c2cn(C)c(=O)n(C)c2=O)[nH]c2ccc(C3CCNCC3)cc12` [Example 21, 5-(3-isopropyl-5-(piperidin-4-yl)-1H-indol-2-yl)-1,3-dimethylpyrimidine-2,4(1H,3H)-dione], the pIC50 against human TLR7 was 6.98; at human TLR8, 6.58; at human TLR9, 5.18.
Take `Cc1cc(-c2[nH]c3ccc(C4CCNCC4)cc3c2C(C)C)cn(CC(C)(C)O)c1=O` [Example 43, 1-(2-hydroxy-2-methylpropyl)-5-(3-isopropyl-5-(piperidin-4-yl)-1H-indol-2-yl)-3-methylpyridin-2(1H)-one]: the negative-log IC50 (pIC50) against human TLR7 was 6.96; against human TLR8, 6.81; at human TLR9 it was 5.81.
For `Cc1cc(-c2[nH]c3ccc(C4CCN(CCCO)CC4)cc3c2C(C)C)cn(C)c1=O` [Example 85, 5-(5-(1-(3-hydroxypropyl)piperidin-4-yl)-3-isopropyl-1H-indol-2-yl)-1,3-dimethylpyridin-2(1H)-one], in that order: 8.66, 8.34 and 5.07.
In the case of `COCc1cc(-c2[nH]c3ccc(C4CCN(C5COC5)CC4)cc3c2C(C)C)cn(C)c1=O` [Example 346, 5-(3-isopropyl-5-(1-(oxetan-3-yl)piperidin-4-yl)-1H-indol-2-yl)-3-(methoxymethyl)-1-methylpyridin-2(1H)-one], the pIC50 on human TLR7 is 7.42; against human TLR8, 7.06; on human TLR9, 4.78.
On to `Cc1cc(-c2[nH]c3ccc(C4CCN(Cc5ccnn5C)CC4)cc3c2C(C)C)cn(C)c1=O` [Example 197, 5-(3-isopropyl-5-(1-((1-methyl-1H-pyrazol-5-yl)methyl)piperidin-4-yl)-1H-indol-2-yl)-1,3-dimethylpyridin-2(1H)-one], for which the pIC50 was 8.34 on human TLR7, 8.62 against human TLR8 and 5.08 on human TLR9.
Take `Cc1cc(-c2[nH]c3ccc(C4CCN(C5CCOCC5)CC4)cc3c2C(C)C)cn(CC(C)C)c1=O` [Example 262, 1-isobutyl-5-(3-isopropyl-5-(1-(tetrahydro-2H-pyran-4-yl)piperidin-4-yl)-1H-indol-2-yl)-3-methylpyridin-2(1H)-one]: the negative logarithm of the IC50 (pIC50) is 7.32 at human TLR7, 7.28 at human TLR8 and 5.67 at human TLR9.
As for `Cc1c(-c2[nH]c3ccc(C4CCNCC4)cc3c2C(C)C)cn(C)c(=O)c1-c1cccnc1` [Example 65, 5-(3-isopropyl-5-(piperidin-4-yl)-1H-indol-2-yl)-1,4-dimethyl-[3,3′-bipyridin]-2(1H)-one], the pIC50 on human TLR7 is 6.01; on human TLR8 it was 7.12; against human TLR9, 5.51.
The like results for `CCn1nc(-c2[nH]c3ccc(C4CCNCC4)cc3c2C(C)C)cc(C)c1=O` [Example 18, 2-ethyl-6-(3-isopropyl-5-(piperidin-4-yl)-1H-indol-2-yl)-4-methylpyridazin-3(2H)-one] were, in that order, 7.74, 7.83 and 5.18.
In the case of `C=Cc1cc(-c2[nH]c3ccc(C4CCN(CC(=O)N(C)C)CC4)cc3c2C(C)C)cn(C)c1=O` [Example 352, 2-(4-(3-isopropyl-2-(1-methyl-6-oxo-5-vinyl-1,6-dihydropyridin-3-yl)-1H-indol-5-yl)piperidin-1-yl)-N,N-dimethylacetamide], the negative logarithm of the IC50 (pIC50) at human TLR7 was 7.67; against human TLR8, 7.50; at human TLR9, 5.62.
In the case of `Cc1cc(-c2[nH]c3ccc(C4CCN(C(=O)CN(C)C)CC4)cc3c2C(C)C)cn(C)c1=O` [Example 271, 5-(5-(1-(2-(dimethylamino)acetyl)piperidin-4-yl)-3-isopropyl-1H-indol-2-yl)-1,3-dimethylpyridin-2(1H)-one], the pIC50 against human TLR7 was 8.28; against human TLR8, 8.08; on human TLR9, 4.87.
The like results for `CC(C)c1c(-c2cc(-c3cncnc3)c(=O)n(C)c2)[nH]c2ccc(C3CCN(CC4CCOCC4)CC3)cc12` [Example 100, 5-(3-isopropyl-5-(1-((tetrahydro-2H-pyran-4-yl)methyl)piperidin-4-yl)-1H-indol-2-yl)-1-methyl-3-(pyrimidin-5-yl)pyridin-2(1H)-one] were, in that order, 7.67, 8.64 and 5.51.
Take `Cc1cc(-c2[nH]c3ccc(C4CCN(CC(=O)N(C)C)CC4)cc3c2C(C)C)cn(CC(C)C)c1=O` [Example 163, 2-(4-(2-(1-isobutyl-5-methyl-6-oxo-1,6-dihydropyridin-3-yl)-3-isopropyl-1H-indol-5-yl)piperidin-1-yl)-N,N-dimethylacetamide]: the results for the pIC50 on human TLR7, at human TLR8 and against human TLR9 were 7.91, 6.93 and 5.41, respectively.

In general, pIC50 refers to the negative decadic logarithm of the IC50, by convention in mol/L. A high value points to a small IC50.
